The values that follow come from PubChem BioAssay (NCI).

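Dose response: 5 concentrations. Exposure: 48 h. Format: 96-well plates. Endpoint: linear interpolation; highest concentration if not reached. Here, GI50 denotes the concentration required for 50% inhibition of growth. TGI denotes the concentration required for complete inhibition of growth.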

Test systems include DU-145 prostate; M14 melanoma; UACC-257 melanoma; SNB-19 CNS; HOP-62 NSCLC; SK-MEL-5 melanoma; MOLT-4 leukemia; RPMI-8226 leukemia; RXF 393 renal; OVCAR-3 ovarian.
Common to all, as to test: NCI anticancer screen, dose series, 48 h

As to `COc1cc(-c2oc3ccccc3c(=O)c2O)cc(OC)c1OC`, the TGI was above 100 µM in the experiment on DU-145 prostate; above 100 µM in the experiment with M14 melanoma; above 100 µM in the experiment on UACC-257 melanoma; above 100 µM in the experiment on SNB-19 CNS; 71.1 µM in the experiment on HOP-62 NSCLC; above 100 µM in the experiment with SK-MEL-5 melanoma. Besides, the TGI with MOLT-4 leukemia is above 100 µM; in the experiment on RPMI-8226 leukemia it was above 100 µM; in the experiment with RXF 393 renal it was 42.6 µM; with OVCAR-3 ovarian, above 100 µM.
For `CC[C@H](C)[C@H](NC(=O)c1cnccn1)C(=O)N(C)[C@H](C[C@@H](OC(C)=O)c1nc(C(=O)N[C@@H](Cc2ccccc2)C[C@H](C)C(=O)OC)cs1)C(C)C`, the GI50 is 1.23 µM in the experiment with DU-145 prostate; 0.81 µM with M14 melanoma; 5.21 µM with UACC-257 melanoma; 1.42 µM in the experiment on SNB-19 CNS; 1.88 µM in the experiment on HOP-62 NSCLC; 0.809 µM with SK-MEL-5 melanoma. Further, the values for the GI50 in the experiment with MOLT-4 leukemia, in the experiment with RPMI-8226 leukemia and with OVCAR-3 ovarian were 2.23 µM, 1.07 µM and 0.665 µM, respectively. Moreover, the TGI in the experiment on DU-145 prostate is above 33.3 µM; with M14 melanoma it was 2.76 µM; in the experiment with UACC-257 melanoma, 22.1 µM; with SNB-19 CNS, above 33.3 µM; in the experiment with HOP-62 NSCLC, above 33.3 µM; in the experiment with SK-MEL-5 melanoma, 2.87 µM. Besides, the TGI is above 33.3 µM in the experiment with MOLT-4 leukemia, above 33.3 µM in the experiment with RPMI-8226 leukemia and 1.62 µM in the experiment with OVCAR-3 ovarian.
Regarding `C/C(=N\O)c1ccc(Nc2cc(-n3nnc4ccccc43)nc3ccccc23)cc1`, the GI50 in the experiment on DU-145 prostate was 7.7 µM; with M14 melanoma it was 5 µM; in the experiment on UACC-257 melanoma, 17.5 µM; with SNB-19 CNS it was 19.9 µM; in the experiment on HOP-62 NSCLC it was 6.14 µM; in the experiment with SK-MEL-5 melanoma, 5.57 µM. For the same compound, the GI50 in the experiment with MOLT-4 leukemia is 2.85 µM; in the experiment with RPMI-8226 leukemia it was 3.19 µM; in the experiment on OVCAR-3 ovarian, 16.3 µM. Moreover, the TGI is 30 µM in the experiment with DU-145 prostate; 14.9 µM in the experiment with M14 melanoma; above 53.7 µM with UACC-257 melanoma; above 90.7 µM in the experiment on SNB-19 CNS; 21.4 µM in the experiment on HOP-62 NSCLC; 16.6 µM in the experiment on SK-MEL-5 melanoma. The TGI turned out to be 15.4 µM in the experiment with MOLT-4 leukemia, 12.8 µM with RPMI-8226 leukemia and 43.1 µM in the experiment on OVCAR-3 ovarian.
Turning to `CC(=O)c1cccc(N(/C=C/C(=O)C(F)(F)F)CC(=O)c2ccc(Cl)cc2)c1`, the GI50 in the experiment with DU-145 prostate, in the experiment with M14 melanoma, in the experiment on UACC-257 melanoma, with HOP-62 NSCLC, with SK-MEL-5 melanoma and in the experiment with MOLT-4 leukemia was above 100 µM each time. For the same compound, the GI50 in the experiment with RPMI-8226 leukemia, in the experiment on RXF 393 renal and in the experiment with OVCAR-3 ovarian was above 100 µM each time. Besides, the TGI in the experiment with DU-145 prostate, with M14 melanoma, in the experiment on UACC-257 melanoma, in the experiment with HOP-62 NSCLC, with SK-MEL-5 melanoma and in the experiment with MOLT-4 leukemia was above 100 µM in each case. In addition, the TGI in the experiment with RPMI-8226 leukemia, with RXF 393 renal and in the experiment on OVCAR-3 ovarian was above 100 µM throughout.
Consider `Cc1cc(N(CCNc2ccnc3cc(Cl)ccc23)Cc2ccc3c(c2)OCO3)nc(N2CCN(C)CC2)n1`, for which the GI50 is 1.89 µM in the experiment on M14 melanoma; 2.01 µM in the experiment on UACC-257 melanoma; 3.78 µM in the experiment on SNB-19 CNS; 2.22 µM in the experiment on HOP-62 NSCLC; 1.79 µM in the experiment on SK-MEL-5 melanoma; 2.09 µM in the experiment on MOLT-4 leukemia. The GI50 is 1.88 µM with RPMI-8226 leukemia, 1.43 µM in the experiment with RXF 393 renal and 2.73 µM in the experiment on OVCAR-3 ovarian. Also, the TGI in the experiment with M14 melanoma was determined as 3.55 µM; in the experiment on UACC-257 melanoma, 3.79 µM; in the experiment on SNB-19 CNS, 13 µM; in the experiment on HOP-62 NSCLC, 15.4 µM; in the experiment with SK-MEL-5 melanoma, 3.25 µM; with MOLT-4 leukemia it was 8.36 µM. For the same compound, the TGI in the experiment on RPMI-8226 leukemia came to 5.23 µM; in the experiment with RXF 393 renal, 3.17 µM; in the experiment with OVCAR-3 ovarian, 10.9 µM.
As for `O=[N+]([O-])c1ccc(N=Nc2c(O)[nH]c3ccc([N+](=O)[O-])cc23)cc1`, the TGI in the experiment on M14 melanoma was 38 µM; in the experiment with UACC-257 melanoma, 59.7 µM; with SNB-19 CNS it was 40.5 µM; with HOP-62 NSCLC, 38.3 µM; in the experiment with SK-MEL-5 melanoma it was 26.7 µM; with MOLT-4 leukemia, above 100 µM. Besides, the TGI in the experiment with RPMI-8226 leukemia was found to be 36.2 µM; with RXF 393 renal, 36.5 µM; in the experiment with OVCAR-3 ovarian, 42 µM.
For `C/C(=N/N(C=O)C[n+]1ccccc1)C(CN(CC(C)C)CC(C)C)C(=O)Nc1ccc(C)cc1C` (centres undefined), the TGI in the experiment with M14 melanoma, in the experiment with UACC-257 melanoma, in the experiment with SNB-19 CNS, with HOP-62 NSCLC, in the experiment on SK-MEL-5 melanoma and in the experiment on MOLT-4 leukemia was above 100 µM each time. The TGI in the experiment on RPMI-8226 leukemia, with RXF 393 renal and in the experiment on OVCAR-3 ovarian was above 100 µM throughout.
As for `O=c1nc(-c2ccccc2)c2c3c(cccn13)CCC2`, the TGI with M14 melanoma, in the experiment on UACC-257 melanoma, in the experiment with SNB-19 CNS, in the experiment on HOP-62 NSCLC, with SK-MEL-5 melanoma and with MOLT-4 leukemia was above 100 µM each time. Moreover, the TGI in the experiment with RPMI-8226 leukemia, in the experiment on RXF 393 renal and with OVCAR-3 ovarian was above 100 µM throughout.
Take `Clc1ccccc1NN(Cc1ccccn1)c1ccccc1Cl`: the TGI was above 100 µM with DU-145 prostate; 38.3 µM in the experiment on M14 melanoma; 79.7 µM in the experiment with SNB-19 CNS; 34.3 µM in the experiment on HOP-62 NSCLC; 27.9 µM with SK-MEL-5 melanoma; 41.9 µM with MOLT-4 leukemia. Also, the TGI came out at 61.4 µM in the experiment on RPMI-8226 leukemia, 29.2 µM in the experiment with RXF 393 renal and 32.9 µM with OVCAR-3 ovarian.
Take `C[C@]12CC[C@@H]3c4ccc(O)c([N+](=O)[O-])c4CC[C@H]3[C@@H]1CC[C@@H]2NS(=O)(=O)c1ccc(C(F)(F)F)cc1`: the GI50 is 2.63 µM in the experiment with DU-145 prostate; 1.92 µM in the experiment on M14 melanoma; 1.87 µM with UACC-257 melanoma; 2.79 µM in the experiment with SNB-19 CNS; 1.83 µM in the experiment on HOP-62 NSCLC; 1.72 µM with SK-MEL-5 melanoma. In addition, the GI50 is 2.08 µM in the experiment with MOLT-4 leukemia and 2.17 µM in the experiment with RPMI-8226 leukemia. Moreover, the TGI was found to be 7.11 µM with DU-145 prostate; 3.91 µM in the experiment on M14 melanoma; 4.74 µM in the experiment on UACC-257 melanoma; 11.2 µM in the experiment on SNB-19 CNS; 3.58 µM with HOP-62 NSCLC; 3.28 µM in the experiment on SK-MEL-5 melanoma. Further, the TGI in the experiment on MOLT-4 leukemia was found to be 5.99 µM; in the experiment on RPMI-8226 leukemia it was 5.4 µM.
